Test results as given in publication PMC6060094, “Structural determinants of the catalytic mechanism of Plasmodium CCT, a key enzyme of malaria lipid biosynthesis” (Scientific Reports, 2018).
Read-outs that look alike come from different tables or passages of the source.

How the values were obtained:
[1] = target: T1, PfCCT(581–775) (Plasmodium falciparum, UniProt P49587, DEL194-211); experiment: Saturation Transfer Difference NMR (STD-NMR) ligand binding; conditions: ligand 1 mM; 50 µM PfCCT(581-775), 283 K
T1 construct: The PfCCT(581–775) construct was obtained using previously described PfCCT(528–795); 6xHis (TEV-cleavable) (N, cleaved yes); made in house; host or cells: E. coli BL21 (DE3)
Description: In order to provide structural insights into the mechanism of action of PfCCT, we set out to crystallize the constitutively active C-terminal catalytic domain of PfCCT. Several constructs were tested and our attempts were successful only in case of PfCCT(581–775) that corresponds to the exact region visible in the crystal structure of RnCCT (PDB: 3HL4)[20] (Fig. 1a). […] (Table 1 and Supplementary Fig. S1). We further assessed the functionality of PfCCT(581–775) by characterizing its substrate and product binding ability. […] Saturation Transfer Difference Nuclear Magnetic Resonance (STD-NMR) experiments indicated STD signal of CTP, ChoP and CDPCho bound to PfCCT(581–775) at 1 mM, 4 mM and 1 mM concentrations, respectively (Supplementary Fig. S1). This latter result is consistent with previously observed unusually low ChoP affinity of PfCCT[16]. We concluded that PfCCT(581–775) is compatible with substrate and product recognition and may be amenable to structural studies provided that its compromised enzymatic function is taken into account in structure-based interpretations. It is likely that the drop of PfCCT(581–775) enzyme activity is due to the elimination of the C-terminal flanking part as similarly located truncations in the RnCCT catalytic domain also led to severe loss of activity[28],[29]. […]
Kinetic data are fitted with the Michaelis–Menten equation. […] Values of the measured kinetic and thermodynamic parameters and their errors […]
(black) of 50 µM PfCCT(581-775) in 20 mM Tris/HCl pH 7.5, 150 mM NaCl and 2 mM EtSH are shown in presence of c) 1 mM CTP, d) 4 mM ChoP and e) 1 mM CDPCho. […] The 1D 1H STD-NMR spectra were recorded on a Bruker 500 MHz instrument at 283 K with 256 scans and selective saturation of protein resonances at 0.922 ppm using a series of Gaussian shaped pulses (20 ms, 1 ms delay between the pulses). […] All 1D 1H NMR spectra were recorded […]

[2] = target: T1, PfCCT(581–775); experiment: Equilibrium ligand binding by isothermal titration calorimetry (ITC); conditions: 20 °C
Description: (§1) Calorimetric measurements were performed on an ITC 200 titration calorimeter (Malvern) at 20 °C. The protein samples were dialyzed against 20 mM HEPES/NaOH pH 7.5, 100 mM NaCl, including 0.5 mM Tris(2-carboxyethyl)phosphine (TCEP) as reducing agent. CTP and CDPCho were diluted from a concentrated stock into the dialysis buffer with subsequent pH adjustment. Concentration of the titrating nucleotide ligands were determined using molar extinction coefficients 9000 M^−1 cm^−1 at 271 nm for CTP and 5000 M^−1 cm^−1 at 260 nm for CDPCho[16]. In the experimental setup, the cell of the instrument was filled with protein and the syringe with the ligand. The titrations typically included 19 steps of injection with 2 μl of ligand per injection spaced 180 s apart from each other, with the injection syringe rotating at 750 r.p.m. The data were analyzed using MICROCAL ORIGIN software following the directions of the manufacturer. To account for dilution, the invariant integrated heat value of the last 3–5 data points was subtracted from all data points. The one set of independent sites binding model was applied to data for determination of thermodynamic parameters: dissociation constant (Kd), stoichiometry (N), enthalpy (ΔH) and entropy (ΔS). Due to the low apparent affinity, the N value was fixed to a constant value of 1 in CTP titrations to PfCCT(528–795) K663A according to the low c value ITC data analysis protocol[40],[41]. For CTP and CDPCho titrations of PfCCT(528–795) K663A, and CTP titrations of T761A and T762A variants of PfCCT(528-795), mean and SD from two independent experiments are provided, whereas for CDPCho titrations of PfCCT(581–775) and PfCCT(528-795) mean and SD from three independent experiments are provided. For PfCCT(528-795) (Y626F/Q636A), errors of model fit to data of a single ligand binding experiment are given.

[3] = target: T2, PfCCT(528–795) (Plasmodium falciparum, UniProt P49587, DEL194-211); experiment: as above; conditions: 20 °C
T2 construct: previously described PfCCT(528–795) lacking the lysine-rich Plasmodium specific loop (720–737); His-tag; made in house
Description: as §1

[4] = target: T3, PfCCT(528–795) K663A (Plasmodium falciparum, UniProt Q8IEE9, DEL720-737/K663A); experiment: as above; conditions: 20 °C
T3 sequence (Q8IEE9 528-795, stated change not applied): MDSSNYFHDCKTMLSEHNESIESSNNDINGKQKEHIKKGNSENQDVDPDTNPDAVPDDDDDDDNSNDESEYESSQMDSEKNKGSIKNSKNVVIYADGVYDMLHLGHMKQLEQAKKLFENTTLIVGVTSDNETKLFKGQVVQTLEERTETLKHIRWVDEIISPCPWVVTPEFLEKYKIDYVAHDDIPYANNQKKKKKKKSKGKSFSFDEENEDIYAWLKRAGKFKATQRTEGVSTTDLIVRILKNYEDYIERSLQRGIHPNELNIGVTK
Description: as §1

[5] = target: T4, PfCCT(528–795) Y626F/Q636A (Plasmodium falciparum, UniProt Q8IEE9, DEL720-737/Q636A/Y626F); experiment: as above; conditions: 20 °C, pH 7.5, single experiment, errors of model fit
T4 sequence (Q8IEE9 528-795, stated change not applied): as above
Description: as §1

[6] = target: PfCCT(528–795) T761A; experiment: as above; parameters: species or system Plasmodium falciparum; conditions: 20 °C, pH 7.5, read-out: Kd,CTP
Description: as §1, with “Due to the low apparent affinity, the N value was fixed to a constant value of 1 in CTP titrations to PfCCT(528–795) K663A according to the low c value ITC data analysis protocol[40],[41]. For CTP and CDPCho titrations of PfCCT(528–795) K663A, and CTP titrations of T761A and T762A variants of PfCCT(528-795), mean and SD from two independent experiments are provided, whereas for CDPCho titrations of PfCCT(581–775) and PfCCT(528-795) mean and SD from three independent experiments are provided. For PfCCT(528-795) (Y626F/Q636A), errors of model fit to data of a single ligand binding experiment are given.” left out

[7] = target: PfCCT(528–795) T762A; experiment: as above; parameters: species or system Plasmodium falciparum; conditions: 20 °C, pH 7.5, read-out: Kd,CTP
Description: as §1, with “Due to the low apparent affinity, the N value was fixed to a constant value of 1 in CTP titrations to PfCCT(528–795) K663A according to the low c value ITC data analysis protocol[40],[41]. For CTP and CDPCho titrations of PfCCT(528–795) K663A, and CTP titrations of T761A and T762A variants of PfCCT(528-795), mean and SD from two independent experiments are provided, whereas for CDPCho titrations of PfCCT(581–775) and PfCCT(528-795) mean and SD from three independent experiments are provided. For PfCCT(528-795) (Y626F/Q636A), errors of model fit to data of a single ligand binding experiment are given.” left out

[8] = target: T3, PfCCT(528–795) K663A; experiment: Continuous coupled colorimetric enzyme activity assay (PPase/PNP/MESG); type: biochemical; conditions: refers to a phosphohydrolase activity; ChoP fixed 5 mM; read-out: KM,CTP
From the text: The presence of Cho in the active site at least partially stabilizes the K663 side chain, while ChoP or CDPCho accommodation renders this residue fully visualized. The K663 terminal amino moiety points towards the phosphate group of ChoP or both phosphate moieties of CDPCho, in somewhat different conformations (Fig. 3e and Supplementary Fig. S3). These structural insights showing variable detection and interactions of K663 prompted us to an in-depth definition of its role throughout the course of the catalytic mechanism. We interrogated the functionality of this residue by site directed mutagenesis followed by biochemical analysis. […] The enzymatic activity was monitored by a coupled pyrophosphatase (PPase) assay and consisted of two consecutive steps: the cleavage of the byproduct pyrophosphate into two phosphates and the addition of phosphates to a nucleotide derivative, resulting a chromophore substance. […] The accumulation of free phosphate in the absence of the substrate, ChoP, argued for a CTP phosphohydrolase (CTP → CDP + Pi) activity of the K663A mutant (Supplementary Fig. S4). […] For reliable characterization of ligand interactions of this lysine, we measured the equilibrium ligand binding of CDPCho and CTP to PfCCT(528–795) K663A (Table 2 and Supplementary Fig. S4). […]

[9] = system: PfCCT(528–795) T761A; experiment: as above; type: biochemical, Plasmodium falciparum; conditions: CTP varied 100 μM–2 mM, ChoP fixed 5 mM; read-out: KM,CTP
Description: (§2) Enzyme activity measurements were performed as described previously, using a continuous coupled colorimetric assay with pyrophosphatase (PPase), purine nucleoside phosphorylase (PNP) auxiliary enzymes and the auxiliary substrate 7-methyl-6-thioguanosine (MESG)[16],[30],[39]. For CTP substrate titrations, CTP concentration was varied between 100 μM and 2 mM while ChoP concentration was kept constant at 5 mM. For ChoP titrations, ChoP concentration was varied between 0.5 mM and 20 mM while CTP concentration was kept constant at 1 mM. Initial velocities were calculated from the first 10% of the progress curves using phosphate calibration as reference. Due to the low activity of PfCCT(581–775) and PfCCT(528–795) T761A, T762A variants, the enzyme was used at 10 μM concentration and the slope of the absorbance change was determined after monitoring the reaction for 20 minutes. For measurements with PfCCT(528–795) K663A the following reagent concentrations were used in the enzyme assay: [PPase] = 0.17 U·ml^−1, [PNP] = 1.25 U·ml^−1, [MESG] = 0.1 mM, [Mg^2+] = 5 mM and [PfCCT(528–795) K663A] = 10 μM, to yield adequate signal-to-noise ratio (S/N > 10). Three independent experiments were performed for CTP and ChoP kinetic titrations of PfCCT(528–795) K663A. Global fit of CTP and ChoP kinetic titrations for each enzyme variant was performed in Origin 8.6 using Michaelis–Menten equation, to yield a single kcat parameter.

[10] = system: PfCCT(528–795) T762A; experiment: as above; type: biochemical, Plasmodium falciparum; conditions: CTP varied 100 μM–2 mM, ChoP fixed 5 mM; read-out: KM,CTP
Description: as §2

[11] = target: T2, PfCCT(528–795); parameters: method as in Nagy et al.[16]; conditions: ref Nagy et al.[16]; read-out: KM,CTP; cited from earlier work
[12] = target: T1, PfCCT(581–775); experiment: Continuous coupled colorimetric enzyme activity assay (PPase/PNP/MESG); type: biochemical; conditions: CTP varied 100 μM–2 mM, ChoP fixed 5 mM
Description: as §2

[13] = target: T4, PfCCT(528–795) Y626F/Q636A; experiment: as above; type: biochemical; conditions: CTP varied 100 μM–2 mM, ChoP fixed 5 mM; read-out: KM,CTP
Description: as §2

## C[N+](C)(C)CCOP(=O)(O)OP(=O)([O-])OC[C@H]1O[C@@H](n2ccc(N)nc2=O)[C@H](O)[C@@H]1O [CDPCho, CDP-choline]
[1]
  STD-NMR signal of ligand bound to enzyme: STD signal
[2]; pH 7.5
  ΔGCDP-Cho: -5.8 ± 0.1 kcal/mol
  ΔHCDP-Cho: -10.5 ± 0.3 kcal/mol
  −TΔSCDP-Cho: 4.7 ± 0.4 kcal/mol
[2]; pH 7.5, read-out: Kd,CDP-Cho
  Kd: 47 ± 5 µM
[3]; pH 7.5
  ΔGCDP-Cho: -6.0 ± 0.2 kcal/mol
  ΔHCDP-Cho: -16.1 ± 0.1 kcal/mol
  −TΔSCDP-Cho: 10.1 ± 0.1 kcal/mol
[3]; pH 7.5, read-out: Kd,CDP-Cho
  Kd: 34 ± 1 µM
[4]; pH 7.5
  ΔGCDP-Cho: -5.0 ± 1.4 kcal/mol
  ΔHCDP-Cho: -11.4 ± 1.5 kcal/mol
  −TΔSCDP-Cho: 6.5 ± 1.6 kcal/mol
[4]; pH 7.5, read-out: Kd,CDP-Cho
  Kd: 210 ± 60 µM
[5]
  ΔGCDP-Cho: -6.2 ± 0.1 kcal/mol
  ΔHCDP-Cho: -12.0 ± 0.2 kcal/mol
  −TΔSCDP-Cho: 5.8 ± 0.1 kcal/mol
[5]; read-out: Kd,CDP-Cho
  Kd: 22.2 ± 0.2 µM

## Nc1ccn([C@@H]2O[C@H](COP(=O)(O)OP(=O)(O)OP(=O)(O)O)[C@@H](O)[C@H]2O)c(=O)n1 [CTP]
[1]
  STD-NMR signal of ligand bound to enzyme: STD signal
[3]; pH 7.5
  ΔGCTP: -5.7 ± 0.1 kcal/mol
  ΔHCTP: -8.6 ± 0.3 kcal/mol
  −TΔSCTP: 3.0 ± 0.4 kcal/mol
[3]; pH 7.5, read-out: Kd,CTP
  Kd: 60 ± 2 µM
[4]; pH 7.5, N fixed to 1
  ΔGCTP: -4.4 ± 0.1 kcal/mol
  −TΔSCTP: -10.5 ± 0.6 kcal/mol
[4]; pH 7.5, N fixed to 1 (low c value protocol), read-out: Kd,CTP
  Kd: 520 ± 50 µM
[5]
  ΔGCTP: -5.7 ± 0.1 kcal/mol
  ΔHCTP: -10.8 ± 0.1 kcal/mol
  −TΔSCTP: 5.1 ± 0.2 kcal/mol
[5]; read-out: Kd,CTP
  Kd: 60 ± 2 µM
[6]
  Kd: 170 ± 35 µM
[7]
  Kd: 170 ± 12 µM
[8]
  Km: 70 ± 20 µM
[9]
  Km: 1.27 mM
[10]
  Km: 610 ± 70 µM
[11]
  Km: 170 ± 20 µM
[12]
  Km: 1.1 mM
[13]
  Km: 170 ± 10 µM
